Test results published in ChEMBL document CHEMBL4507282, “Data for DCP probe BI-1950” (2021).

What was measured:
[1] = target: Serotonin 2 (5-HT2) receptor (Rattus norvegicus) (UniProt P30994+P08909+P14842); test: 5HT2/R Eurofins-Panlabs selectivity data (BI); assay type: protein assay; conditions: Compound concentration 10.0 uM
[2] = target: T1, 5-hydroxytryptamine receptor 3A (Homo sapiens) (UniProt P46098); test: 5HT3/HU Eurofins-Panlabs selectivity data (BI); conditions: Compound concentration 10.0 uM
T1 sequence (whole entry): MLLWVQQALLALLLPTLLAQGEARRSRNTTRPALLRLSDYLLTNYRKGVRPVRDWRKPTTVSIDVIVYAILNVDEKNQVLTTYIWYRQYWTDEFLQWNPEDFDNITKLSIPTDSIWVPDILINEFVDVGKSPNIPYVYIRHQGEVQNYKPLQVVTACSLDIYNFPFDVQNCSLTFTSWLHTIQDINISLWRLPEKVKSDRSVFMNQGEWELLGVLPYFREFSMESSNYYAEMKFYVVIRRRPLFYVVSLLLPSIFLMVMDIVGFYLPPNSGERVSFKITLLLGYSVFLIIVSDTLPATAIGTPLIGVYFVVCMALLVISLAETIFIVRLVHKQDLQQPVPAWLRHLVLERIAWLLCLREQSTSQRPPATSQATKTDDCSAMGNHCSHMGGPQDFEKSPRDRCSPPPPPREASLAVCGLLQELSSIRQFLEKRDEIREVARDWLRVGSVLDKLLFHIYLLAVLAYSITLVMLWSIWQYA

[3] = target: Adrenergic receptor alpha-2 (Rattus norvegicus) (UniProt P22086+P19328+P22909); test: ALPHA2/R Eurofins-Panlabs selectivity data (BI); assay type: protein assay; conditions: Compound concentration 10.0 uM
[4] = target: Sodium/potassium-transporting ATPase subunit alpha-1 (Sus scrofa) (UniProt P05024); test: ATP NA+/K+PI Eurofins-Panlabs selectivity data (BI); conditions: Compound concentration 10.0 uM
[5] = target: Beta-2 adrenergic receptor (Rattus norvegicus) (UniProt P10608); test: BETA/R Eurofins-Panlabs selectivity data (BI); conditions: Compound concentration 10.0 uM
[6] = target: Voltage-dependent L-type calcium channel subunit alpha-1C (diltiazem site) (Rattus norvegicus, UniProt P22002); test: CA+/DILSI/RA Eurofins-Panlabs selectivity data (BI); conditions: compound concentration 10 uM, read-out: % Ctrl
[7] = target: Calcitonin-gene-related peptide receptor, CALCRL/RAMP1 (Homo sapiens) (UniProt O60894+Q16602); test: CGRP/HU Eurofins-Panlabs selectivity data (BI); assay type: protein-complex assay; conditions: Compound concentration 10.0 uM
[8] = target: Sodium-dependent dopamine transporter (Homo sapiens) (UniProt Q01959); test: DATRANS/H Eurofins-Panlabs selectivity data (BI); conditions: Compound concentration 10.0 uM
[9] = target: Gamma-aminobutyric acid receptor subunit alpha-1 (Rattus norvegicus) (UniProt P62813); test: GABAACENTR Eurofins-Panlabs selectivity data (BI); conditions: Compound concentration 10.0 uM
[10] = target: Gamma-aminobutyric acid receptor subunit alpha-1 (Rattus norvegicus) (UniProt P62813); test: GABAACL+ Eurofins-Panlabs selectivity data (BI); conditions: Compound concentration 10.0 uM
[11] = target: Amine oxidase [flavin-containing] A (MAO-A) (Homo sapiens, UniProt P21397); test: MAOA Eurofins-Panlabs selectivity data (BI); set-up: mode of action inhibitor; conditions: compound concentration 10 uM, read-out: % Ctrl
[12] = target: Amine oxidase [flavin-containing] B (MAO-B) (Homo sapiens, UniProt P27338); test: MAOB Eurofins-Panlabs selectivity data (BI); set-up: mode of action inhibitor; conditions: compound concentration 10 uM, read-out: % Ctrl
[13] = target: Vasopressin V2 receptor (Homo sapiens) (UniProt P30518); test: VASOPRE_V2 Eurofins-Panlabs selectivity data (BI); conditions: Compound concentration 10.0 uM
[14] = system: ALK tyrosine kinase receptor (Homo sapiens), Q9UM73 [C1156Y]; conditions: Compound concentration 1000.0 nM
ALK tyrosine kinase receptor (Homo sapiens), Q9UM73 [C1156Y], sequence (Q9UM73 whole entry C1156Y, looked up): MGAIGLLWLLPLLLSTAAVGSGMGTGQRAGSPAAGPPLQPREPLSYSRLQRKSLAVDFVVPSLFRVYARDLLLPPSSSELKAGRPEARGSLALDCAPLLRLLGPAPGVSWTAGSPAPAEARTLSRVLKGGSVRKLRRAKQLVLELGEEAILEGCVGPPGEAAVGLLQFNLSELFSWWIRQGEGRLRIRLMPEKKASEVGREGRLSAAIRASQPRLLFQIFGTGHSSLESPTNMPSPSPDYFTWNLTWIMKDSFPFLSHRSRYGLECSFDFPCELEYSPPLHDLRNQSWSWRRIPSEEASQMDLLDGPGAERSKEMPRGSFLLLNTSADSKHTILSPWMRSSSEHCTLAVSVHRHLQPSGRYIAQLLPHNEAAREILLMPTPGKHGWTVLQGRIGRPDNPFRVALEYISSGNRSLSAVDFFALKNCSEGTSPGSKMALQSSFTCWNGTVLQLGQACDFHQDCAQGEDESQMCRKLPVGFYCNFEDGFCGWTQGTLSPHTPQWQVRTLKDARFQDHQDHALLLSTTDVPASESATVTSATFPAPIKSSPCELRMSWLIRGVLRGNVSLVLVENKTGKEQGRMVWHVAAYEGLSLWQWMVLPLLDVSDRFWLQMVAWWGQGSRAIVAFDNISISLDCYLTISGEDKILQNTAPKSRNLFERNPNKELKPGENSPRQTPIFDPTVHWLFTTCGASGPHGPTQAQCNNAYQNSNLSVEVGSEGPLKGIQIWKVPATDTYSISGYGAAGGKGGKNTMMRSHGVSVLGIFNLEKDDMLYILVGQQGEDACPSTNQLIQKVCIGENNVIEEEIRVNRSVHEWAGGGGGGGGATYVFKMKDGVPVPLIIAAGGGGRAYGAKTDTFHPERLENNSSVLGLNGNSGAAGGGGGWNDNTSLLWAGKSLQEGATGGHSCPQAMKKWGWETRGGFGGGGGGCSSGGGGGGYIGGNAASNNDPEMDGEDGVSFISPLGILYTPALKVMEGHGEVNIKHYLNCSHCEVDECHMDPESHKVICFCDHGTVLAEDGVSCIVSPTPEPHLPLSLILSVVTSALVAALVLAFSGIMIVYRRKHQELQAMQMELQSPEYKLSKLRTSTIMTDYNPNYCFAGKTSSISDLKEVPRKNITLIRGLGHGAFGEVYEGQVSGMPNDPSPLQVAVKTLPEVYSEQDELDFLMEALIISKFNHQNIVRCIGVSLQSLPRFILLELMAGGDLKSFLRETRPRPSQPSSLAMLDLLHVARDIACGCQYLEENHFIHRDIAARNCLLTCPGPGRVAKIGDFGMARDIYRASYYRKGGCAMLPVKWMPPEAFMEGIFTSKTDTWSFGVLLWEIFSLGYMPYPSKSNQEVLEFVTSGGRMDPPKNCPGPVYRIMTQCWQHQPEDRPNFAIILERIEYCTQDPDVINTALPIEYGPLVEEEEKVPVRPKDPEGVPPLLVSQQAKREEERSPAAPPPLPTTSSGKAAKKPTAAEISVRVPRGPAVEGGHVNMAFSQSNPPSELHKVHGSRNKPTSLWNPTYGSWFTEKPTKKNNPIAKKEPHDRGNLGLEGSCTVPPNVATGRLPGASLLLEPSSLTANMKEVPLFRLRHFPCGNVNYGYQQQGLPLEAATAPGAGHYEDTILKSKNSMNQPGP

[15] = target: Cyclin-dependent kinase 3 (Homo sapiens) (UniProt Q00526); conditions: Compound concentration 1000.0 nM
[16] = target: Cyclin-dependent kinase-like 5 (Homo sapiens) (UniProt O76039); conditions: Compound concentration 1000.0 nM
Cyclin-dependent kinase-like 5 (Homo sapiens), sequence (O76039 whole entry): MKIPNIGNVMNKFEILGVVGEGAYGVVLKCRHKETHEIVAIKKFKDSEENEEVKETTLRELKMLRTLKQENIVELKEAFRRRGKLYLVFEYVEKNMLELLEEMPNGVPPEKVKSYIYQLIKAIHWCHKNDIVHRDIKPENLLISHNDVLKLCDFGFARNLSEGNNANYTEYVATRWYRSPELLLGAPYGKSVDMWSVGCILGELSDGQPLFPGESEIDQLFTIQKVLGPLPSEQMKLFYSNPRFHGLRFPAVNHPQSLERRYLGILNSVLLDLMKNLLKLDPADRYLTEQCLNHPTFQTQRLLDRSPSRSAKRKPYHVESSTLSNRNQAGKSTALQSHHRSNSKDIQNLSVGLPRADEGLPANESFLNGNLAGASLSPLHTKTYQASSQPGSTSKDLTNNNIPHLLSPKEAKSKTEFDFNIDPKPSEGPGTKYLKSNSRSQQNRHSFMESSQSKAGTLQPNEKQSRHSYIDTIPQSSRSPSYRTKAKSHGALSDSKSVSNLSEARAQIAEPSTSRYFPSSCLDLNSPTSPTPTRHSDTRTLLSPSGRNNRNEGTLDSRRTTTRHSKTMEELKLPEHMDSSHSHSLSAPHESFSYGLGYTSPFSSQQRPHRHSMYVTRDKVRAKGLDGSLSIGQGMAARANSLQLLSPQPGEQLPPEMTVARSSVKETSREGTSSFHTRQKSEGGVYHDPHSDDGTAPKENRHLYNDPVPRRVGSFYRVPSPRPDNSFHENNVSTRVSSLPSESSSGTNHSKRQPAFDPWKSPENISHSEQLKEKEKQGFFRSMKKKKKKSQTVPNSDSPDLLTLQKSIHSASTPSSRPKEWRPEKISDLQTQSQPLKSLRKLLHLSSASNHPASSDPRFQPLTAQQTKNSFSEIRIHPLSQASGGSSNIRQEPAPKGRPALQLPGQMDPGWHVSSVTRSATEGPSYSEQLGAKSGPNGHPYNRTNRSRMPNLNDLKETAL

[17] = target: Mitogen-activated protein kinase 1 (Homo sapiens) (UniProt P28482); conditions: Compound concentration 1000.0 nM
[18] = target: Tyrosine-protein kinase Fes/Fps (Homo sapiens) (UniProt P07332); conditions: Compound concentration 1000.0 nM
[19] = target: Receptor-type tyrosine-protein kinase FLT3 (Homo sapiens) (UniProt P36888); conditions: Compound concentration 1000.0 nM
[20] = target: Mitogen-activated protein kinase 10 (Homo sapiens) (UniProt P53779); conditions: Compound concentration 1000.0 nM
Mitogen-activated protein kinase 10 (Homo sapiens), sequence (P53779 whole entry): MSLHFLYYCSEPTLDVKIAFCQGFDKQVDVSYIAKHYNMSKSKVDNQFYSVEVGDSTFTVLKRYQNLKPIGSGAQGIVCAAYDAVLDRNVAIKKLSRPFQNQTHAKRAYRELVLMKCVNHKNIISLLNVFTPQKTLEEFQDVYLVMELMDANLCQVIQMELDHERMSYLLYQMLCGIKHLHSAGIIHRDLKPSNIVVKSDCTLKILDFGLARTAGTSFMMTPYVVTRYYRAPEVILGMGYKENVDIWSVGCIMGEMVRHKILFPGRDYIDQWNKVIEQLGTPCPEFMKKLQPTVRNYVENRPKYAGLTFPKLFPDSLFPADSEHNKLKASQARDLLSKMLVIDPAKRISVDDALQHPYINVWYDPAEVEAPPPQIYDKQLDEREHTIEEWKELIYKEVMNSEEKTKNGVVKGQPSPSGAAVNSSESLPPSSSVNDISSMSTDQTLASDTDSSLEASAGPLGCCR

[21] = target: MAP kinase-activated protein kinase 2 (Homo sapiens) (UniProt P49137); conditions: Compound concentration 1000.0 nM
[22] = target: Serine/threonine-protein kinase 3 (Homo sapiens) (UniProt Q13188); conditions: Compound concentration 1000.0 nM
Serine/threonine-protein kinase 3 (Homo sapiens), sequence (Q13188 whole entry): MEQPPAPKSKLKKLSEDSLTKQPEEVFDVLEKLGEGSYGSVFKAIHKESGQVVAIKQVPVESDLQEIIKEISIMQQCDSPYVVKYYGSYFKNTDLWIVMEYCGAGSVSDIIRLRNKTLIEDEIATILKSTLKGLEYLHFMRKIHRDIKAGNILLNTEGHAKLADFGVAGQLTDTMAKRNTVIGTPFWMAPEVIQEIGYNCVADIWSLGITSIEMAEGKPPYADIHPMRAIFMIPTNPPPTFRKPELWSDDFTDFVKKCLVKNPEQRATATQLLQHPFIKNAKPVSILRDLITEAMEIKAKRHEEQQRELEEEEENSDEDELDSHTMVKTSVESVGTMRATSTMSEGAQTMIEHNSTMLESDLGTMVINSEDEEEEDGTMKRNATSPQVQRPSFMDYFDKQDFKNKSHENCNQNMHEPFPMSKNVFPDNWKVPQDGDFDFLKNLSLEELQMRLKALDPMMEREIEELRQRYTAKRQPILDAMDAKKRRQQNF

[23] = target: Serine/threonine-protein kinase 38-like (Homo sapiens) (UniProt Q9Y2H1); conditions: Compound concentration 1000.0 nM
[24] = target: Cyclin-dependent kinase 15 (Homo sapiens) (UniProt Q96Q40); conditions: Compound concentration 1000.0 nM
[25] = system: Phosphatidylinositol 4,5-bisphosphate 3-kinase catalytic subunit alpha isoform (Homo sapiens), P42336 [H1047L]; conditions: Compound concentration 1000.0 nM
Phosphatidylinositol 4,5-bisphosphate 3-kinase catalytic subunit alpha isoform (Homo sapiens), P42336 [H1047L], sequence (P42336 whole entry H1047L, canonical isoform): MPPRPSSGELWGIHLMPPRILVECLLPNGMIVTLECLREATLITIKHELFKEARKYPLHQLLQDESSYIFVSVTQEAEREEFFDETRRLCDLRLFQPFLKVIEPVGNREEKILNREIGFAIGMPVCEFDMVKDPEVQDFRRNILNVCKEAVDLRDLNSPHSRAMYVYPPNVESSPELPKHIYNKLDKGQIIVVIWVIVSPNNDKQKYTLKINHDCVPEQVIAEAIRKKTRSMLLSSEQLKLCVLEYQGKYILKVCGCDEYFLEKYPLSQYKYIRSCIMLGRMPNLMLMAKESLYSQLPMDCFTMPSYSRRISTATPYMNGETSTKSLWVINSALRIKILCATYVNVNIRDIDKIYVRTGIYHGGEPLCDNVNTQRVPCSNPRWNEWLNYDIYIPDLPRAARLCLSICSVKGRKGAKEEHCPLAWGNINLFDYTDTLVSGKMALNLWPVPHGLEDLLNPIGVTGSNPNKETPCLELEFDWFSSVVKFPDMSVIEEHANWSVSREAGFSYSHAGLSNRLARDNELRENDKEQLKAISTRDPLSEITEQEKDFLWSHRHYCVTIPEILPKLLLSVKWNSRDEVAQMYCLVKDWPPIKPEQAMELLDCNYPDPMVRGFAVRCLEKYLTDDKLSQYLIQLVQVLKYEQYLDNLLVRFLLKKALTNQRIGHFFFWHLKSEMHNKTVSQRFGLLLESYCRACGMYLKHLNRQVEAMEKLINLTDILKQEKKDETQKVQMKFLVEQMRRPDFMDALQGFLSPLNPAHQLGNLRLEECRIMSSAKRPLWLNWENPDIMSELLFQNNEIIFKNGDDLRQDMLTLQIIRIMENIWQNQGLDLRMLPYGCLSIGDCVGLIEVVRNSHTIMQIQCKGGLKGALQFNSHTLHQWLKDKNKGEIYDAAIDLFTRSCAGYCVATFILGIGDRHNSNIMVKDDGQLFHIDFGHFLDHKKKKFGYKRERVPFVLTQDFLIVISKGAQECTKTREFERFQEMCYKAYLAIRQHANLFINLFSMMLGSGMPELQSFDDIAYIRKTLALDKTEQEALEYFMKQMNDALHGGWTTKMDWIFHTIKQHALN

[26] = target: Serine/threonine-protein kinase pim-2 (Homo sapiens) (UniProt Q9P1W9); conditions: Compound concentration 1000.0 nM
[27] = target: Serine/threonine-protein kinase PLK3 (Homo sapiens) (UniProt Q9H4B4); conditions: Compound concentration 1000.0 nM
[28] = target: Serine/threonine-protein kinase D1 (Homo sapiens) (UniProt Q15139); conditions: Compound concentration 1000.0 nM
[29] = target: Serine/threonine-protein kinase 32C (Homo sapiens) (UniProt Q86UX6); conditions: Compound concentration 1000.0 nM
[30] = target: Tyrosine-protein kinase Yes (Homo sapiens) (UniProt P07947); conditions: Compound concentration 1000.0 nM
[31] = target: 5-hydroxytryptamine receptor 2A (Homo sapiens) (UniProt P28223); conditions: Compound concentration 10.0 uM
5-hydroxytryptamine receptor 2A (Homo sapiens), sequence (P28223 whole entry): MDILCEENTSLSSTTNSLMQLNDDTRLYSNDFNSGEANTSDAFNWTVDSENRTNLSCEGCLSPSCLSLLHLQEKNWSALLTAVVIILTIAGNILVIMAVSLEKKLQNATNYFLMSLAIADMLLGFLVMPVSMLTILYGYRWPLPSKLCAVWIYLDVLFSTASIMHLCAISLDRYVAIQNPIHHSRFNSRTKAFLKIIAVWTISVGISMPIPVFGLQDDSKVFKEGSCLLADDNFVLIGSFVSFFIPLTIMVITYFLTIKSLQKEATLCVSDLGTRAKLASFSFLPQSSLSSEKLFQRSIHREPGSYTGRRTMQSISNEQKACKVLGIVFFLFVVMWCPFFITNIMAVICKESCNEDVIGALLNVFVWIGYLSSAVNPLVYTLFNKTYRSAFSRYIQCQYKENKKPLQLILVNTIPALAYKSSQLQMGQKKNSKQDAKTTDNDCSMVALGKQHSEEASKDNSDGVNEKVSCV

[32] = target: 5-hydroxytryptamine receptor 6 (Homo sapiens) (UniProt P50406); conditions: Compound concentration 10.0 uM
Rattus norvegicus = species: Rattus norvegicus; conditions: Compound concentration 10.0 uM
[33] = target: Alpha-2A adrenergic receptor (Homo sapiens) (UniProt P08913); conditions: Compound concentration 10.0 uM
[34] = target: Alpha-1D adrenergic receptor (Homo sapiens) (UniProt P25100); conditions: Compound concentration 10.0 uM

| SMILES | residual activity [14] | residual activity [15] | residual activity [16] | residual activity [17] | residual activity [18] | residual activity [19] | residual activity [20] | residual activity [21] | residual activity [22] | residual activity [23] | residual activity [24] | residual activity [25] | residual activity [26] | residual activity [27] | residual activity [28] | residual activity [29] | residual activity [30] | inhibition [31] | inhibition [32] | further results |
| --- | --- | --- | --- | --- | --- | --- | --- | --- | --- | --- | --- | --- | --- | --- | --- | --- | --- | --- | --- | --- |
| C[C@H](NC(=O)c1cnc2n1[C@](C)(Cc1ccc(C#N)cc1)C(=O)N2c1cc(Cl)c(F)c(Cl)c1)C(=O)NC1(c2ccccn2)CC1 [BI 1950] | 100% | 100% | 100% | 100% | 100% | 100% | 91% | 100% | 100% | 49% | 100% | 81% | 100% | 81% | 100% | 100% | 100% | 9.3% | 6.67% | residual activity [1]: 98%; residual activity [2]: 134%; residual activity [3]: 88%; residual activity [4]: 109%; residual activity [5]: 84%; activity at 10 µM [6]: 69% (not active); residual activity [7]: 105%; residual activity [8]: 67%; residual activity [9]: 99%; residual activity [10]: 73%; activity at 10 µM [11]: 107% (not active); activity at 10 µM [12]: 101% (not active); residual activity [13]: 85%; inhibition (Rattus norvegicus): 13.1% |
| C[C@@]1(Cc2ccc(C#N)cc2)C(=O)N(c2cc(Cl)cc(Cl)c2)c2ncc(C(=O)NC3(c4nc(C5CCC5)no4)CC3)n21 [BI 9446] | 100% | 100% | 100% | 100% | 100% | 100% | 100% | 100% | 100% | 48% | 97% | 96% | 98% | 100% | 86% | 99% | 100% | 31.9% | 16.1% | inhibition [33]: 12.1%; inhibition [34]: 8.28% |
